The target of test [1] is T1, human GLP-1 receptor (Homo sapiens, UniProt P43220).
T1 construct: expressed in transfected cells; host or cells: CHOK1 cells with a cAMP-regulated luciferase reporter construct
As to the kind of experiment: In vitro GLP-1 receptor binding (125I-GLP-1 ligand binding assay), human receptor. How it is done: Cells were sedimented at 1500 rpm for 10 minutes. The resulting pellets were homogenized in 15 mls of ice cold sucrose buffer (25 mM Tris-HCl, 0.32 M Sucrose, 0.25 g/L sodium azide, pH 7.4) with a motorized, glass fitted, Teflon homogenizer. The homogenate was centrifuged at 48,000×g at 4° C. for 10 minutes, resuspended in 25 ml assay buffer (50 mM Tris-HCl, 5 mM MgCl2, 10 mg/ml protease-free BSA, 0.1 mg/ml STI, and 0.1 mg/ml Pefabloc, pH 7.4) with a Tissue-Tearor (Biospec Products), then centrifuged again at 48,000×g for 10 minutes. The pellets were homogenized for a third time in 15 ml assay buffer using the Tissue-Tearor and again centrifuged at 48,000×g for 10 minutes. The resulting pellet was resuspended in assay buffer at a wet weight concentration of 4 mg/ml.
Binding assays were performed in 96-well U-bottom plates. […] Bound radioactivity was determined using a TopCount microplate scintillation and luminescence counter (Packard Instrument Company, PerkinElmer, Shelton, Conn.). Nonlinear regression analyses of resulting concentration curves were performed using GraphPad Prism (GraphPad Software, Inc., San Diego, Calif.).

The target of a further test is T2, mouse GLP-1 receptor (Mus musculus, UniProt O35659).
T2 construct: expressed in transfected cells; host or cells: CHOK1 cells with a cAMP-regulated luciferase reporter construct
T2 sequence (O35659 22-463): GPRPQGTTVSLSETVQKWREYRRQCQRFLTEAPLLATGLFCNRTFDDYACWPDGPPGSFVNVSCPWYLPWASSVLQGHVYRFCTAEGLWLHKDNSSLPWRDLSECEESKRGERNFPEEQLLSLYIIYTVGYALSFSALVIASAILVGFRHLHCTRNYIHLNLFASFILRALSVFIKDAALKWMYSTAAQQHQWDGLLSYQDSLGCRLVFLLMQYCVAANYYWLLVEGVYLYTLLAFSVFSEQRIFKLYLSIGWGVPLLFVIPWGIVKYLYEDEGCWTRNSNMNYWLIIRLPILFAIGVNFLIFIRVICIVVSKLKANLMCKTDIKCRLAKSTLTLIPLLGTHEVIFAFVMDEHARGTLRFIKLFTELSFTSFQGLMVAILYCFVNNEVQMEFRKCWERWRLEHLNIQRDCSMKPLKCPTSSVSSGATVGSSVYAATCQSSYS
The experiment in a line: GLP-1R reporter assay (cAMP-regulated luciferase, CHOK1 cells), mouse receptor. In kind it is cell-based. To be noted: 6 hours exposure. As for the experimental part:
(§1) A. GLP-1R Reporter Assay:
(§2) Increased cAMP levels were measured through enhanced expression of a luciferase reporter gene. […] The evening prior to assay, the cells were washed, the medium replaced with serum-free medium containing 0.5% protease-free bovine serum albumin (BSA), and then cultured overnight. […] Cell lysates were assayed for luciferase activity using the Luciferase Assay System (Promega Corporation, Madison, Wis.). Luciferase activity was measured using a Luminoskan Ascent (Thermo Electron Corporation, Marietta, Ohio). Nonlinear regression analyses of resultant compound concentration curves were performed using GraphPad Prism (GraphPad Software, Inc., San Diego, Calif.).

For test [2], the target named is T1, human GLP-1 receptor. The experiment in a line: GLP-1R reporter assay (cAMP-regulated luciferase, CHOK1 cells), human receptor. The note with it: luciferase reporter, 6 hours exposure; read-out: EC50 human. In kind it is cell-based. How it is done:
as §1, §2

Test [3] relates to db/db diabetic mouse model. As to the kind of experiment: Fed blood glucose in db/db diabetic mice. In kind it is in vivo. The note with it: for decrease of blood glucose levels over time (FIG. 13): 10 ug injected into each mouse. As for the experimental part:
The db/db mice are commercially available from The Jackson Laboratory JAX® GEMM® Strain—Spontaneous Mutation Congenic Mice, and are homozygous for the diabetes spontaneous mutation (Lepr^db). These mice become identifiably obese around 3 to 4 weeks of age. The criterion for selection for each mouse to enter the study was blood glucose of at least 300 mg/dL. Db/db mice at 8.5 weeks of age (for a chronic 1-2 wk study) to about 10-11 weeks of age (for an acute 1-3 day study) were injected once with each tested compound (acute experiment) or multiple times (chronic experiment). […] The mice were then placed in a fresh cage without any chow, so as to limit any variability in blood glucose levels associated with eating behaviors. Time points of 1 hr, 4 hr, 6 hr, and 24 hr were normally taken. When at the 24 hour time point blood glucose values were below where they started, further time points at every 24 hrs were taken until blood glucose returned to the baseline levels. Normal chow was given back after the 6 hr time point.
Tachyphylaxis was determined by multiple injections. A second injection of the compound was administered after the blood glucose levels sufficiently returned to starting baseline levels. At this point, it was evident whether the compound had the same effect/efficacy, or if there was any noticeable tachyphylaxis.

These results are taken from patent US20130203659A1 (priority 2006, published 2013).

pEC50, pIC50: −log10 of the molar value. Where two headings read alike, the source gives them in different places. Non-standard residues stand in square brackets, D forms with d. Primed or numbered codes have the meaning given here. No end group written: not given here. Aib′ = alpha aminobutyric acid (source's wording); 20k mPEG = methoxy-polyethylene glycol, 20 kDa; 20k PEG = polyethylene glycol, 20 kDa

T1 sequence (P43220 24-463): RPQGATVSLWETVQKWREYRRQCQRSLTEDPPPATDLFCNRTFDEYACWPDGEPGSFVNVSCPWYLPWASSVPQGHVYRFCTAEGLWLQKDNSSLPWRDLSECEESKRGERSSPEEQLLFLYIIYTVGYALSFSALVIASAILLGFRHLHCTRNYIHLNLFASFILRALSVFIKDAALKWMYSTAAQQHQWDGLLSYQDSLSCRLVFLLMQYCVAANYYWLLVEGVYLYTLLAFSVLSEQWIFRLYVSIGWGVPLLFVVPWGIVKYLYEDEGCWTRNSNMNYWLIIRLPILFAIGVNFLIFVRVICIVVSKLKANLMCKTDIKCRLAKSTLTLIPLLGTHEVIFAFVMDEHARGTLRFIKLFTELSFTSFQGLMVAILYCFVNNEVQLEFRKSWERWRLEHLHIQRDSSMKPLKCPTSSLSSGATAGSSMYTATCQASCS

For the compound `CC[C@H](C)[C@H](NC(=O)[C@H](Cc1ccccc1)NC(=O)[C@H](CCC(=O)O)NC(=O)[C@H](CCCCN)NC(=O)[C@H](C)NC(=O)[C@H](C)NC(=O)[C@H](CCC(N)=O)NC(=O)CNC(=O)[C@H](CCC(=O)O)NC(=O)[C@H](CC(C)C)NC(=O)[C@H](Cc1ccc(O)cc1)NC(=O)[C@H](CO)NC(=O)[C@H](CO)NC(=O)[C@@H](NC(=O)[C@H](CC(=O)O)NC(=O)[C@H](CO)NC(=O)[C@@H](NC(=O)[C@H](Cc1ccccc1)NC(=O)[C@@H](NC(=O)CNC(=O)[C@H](CCC(=O)O)NC(=O)[C@H](C)NC(=O)[C@H](Cc1c[nH]cn1)NC(=O)[C@H](C)N)[C@@H](C)O)[C@@H](C)O)C(C)C)C(=O)N[C@@H](C)C(=O)N[C@@H](Cc1c[nH]c2ccccc12)C(=O)N[C@@H](CC(C)C)C(=O)N[C@H](C(=O)N[C@@H](CCCCN)C(=O)NCC(=O)N[C@@H](CCCNC(=N)N)C(=O)O)C(C)C` [A-GLP-1, A HAEGTFTSDVSSYLEGQAAKEFIAWLVKGR], at human GLP-1 receptor [1], the pIC50 is 7.42. The values for the pEC50 on mouse GLP-1 receptor and on human GLP-1 receptor [2] were 9.10 and 9.70, respectively.
At human GLP-1 receptor [1], `CC[C@H](C)[C@H](NC(=O)[C@H](Cc1ccccc1)NC(=O)[C@H](CCC(=O)O)NC(=O)[C@H](CCCCN)NC(=O)[C@H](C)NC(=O)[C@H](C)NC(=O)[C@H](CCC(N)=O)NC(=O)CNC(=O)[C@H](CCC(=O)O)NC(=O)[C@H](CC(C)C)NC(=O)[C@H](Cc1ccc(O)cc1)NC(=O)[C@H](CO)NC(=O)[C@H](CO)NC(=O)[C@@H](NC(=O)[C@H](CC(=O)O)NC(=O)[C@H](CO)NC(=O)[C@@H](NC(=O)[C@H](Cc1ccccc1)NC(=O)[C@@H](NC(=O)CNC(=O)[C@H](CCC(=O)O)NC(=O)[C@H](C)NC(=O)[C@H](Cc1c[nH]cn1)NC(=O)[C@H](Cc1c[nH]cn1)NC(=O)[C@H](Cc1c[nH]cn1)NC(=O)[C@@H](N)CCSC)[C@@H](C)O)[C@@H](C)O)C(C)C)C(=O)N[C@@H](C)C(=O)N[C@@H](Cc1c[nH]c2ccccc12)C(=O)N[C@@H](CC(C)C)C(=O)N[C@H](C(=O)N[C@@H](CCCCN)C(=O)NCC(=O)N[C@@H](CCCNC(=N)N)C(=O)O)C(C)C` [MHH-GLP1, MHH HAEGTFTSDVSSYLEGQAAKEFIAWLVKGR] gave a pIC50 of 6.46. For the same compound, the pEC50 at mouse GLP-1 receptor was 8.30; on human GLP-1 receptor [2], 9.00.
For `CC[C@H](C)[C@H](NC(=O)[C@H](Cc1ccccc1)NC(=O)[C@H](CCC(=O)O)NC(=O)[C@H](CCCCN)NC(=O)[C@H](C)NC(=O)[C@H](C)NC(=O)[C@H](CCC(N)=O)NC(=O)CNC(=O)[C@H](CCC(=O)O)NC(=O)[C@H](CC(C)C)NC(=O)[C@H](Cc1ccc(O)cc1)NC(=O)[C@H](CO)NC(=O)[C@H](CO)NC(=O)[C@@H](NC(=O)[C@H](CC(=O)O)NC(=O)[C@H](CO)NC(=O)[C@@H](NC(=O)[C@H](Cc1ccccc1)NC(=O)[C@@H](NC(=O)CNC(=O)[C@H](CCC(=O)O)NC(=O)[C@H](C)NC(=O)[C@H](Cc1c[nH]cn1)NC(=O)[C@H](CCSC)NC(=O)[C@@H](N)CCSC)[C@@H](C)O)[C@@H](C)O)C(C)C)C(=O)N[C@@H](C)C(=O)N[C@@H](Cc1c[nH]c2ccccc12)C(=O)N[C@@H](CC(C)C)C(=O)N[C@H](C(=O)N[C@@H](CCCCN)C(=O)NCC(=O)N[C@@H](CCCNC(=N)N)C(=O)O)C(C)C` [MM-GLP1, MM HAEGTFTSDVSSYLEGQAAKEFIAWLVKGR] the same measures were 7.00, 8.52 and 9.30.
For `CC[C@H](C)[C@H](NC(=O)[C@H](Cc1ccccc1)NC(=O)[C@H](CCC(=O)O)NC(=O)[C@H](CCCCN)NC(=O)[C@H](C)NC(=O)[C@H](C)NC(=O)[C@H](CCC(N)=O)NC(=O)CNC(=O)[C@H](CCC(=O)O)NC(=O)[C@H](CC(C)C)NC(=O)[C@H](Cc1ccc(O)cc1)NC(=O)[C@H](CO)NC(=O)[C@H](CO)NC(=O)[C@@H](NC(=O)[C@H](CC(=O)O)NC(=O)[C@H](CO)NC(=O)[C@@H](NC(=O)[C@H](Cc1ccccc1)NC(=O)[C@@H](NC(=O)CNC(=O)[C@H](CCC(=O)O)NC(=O)[C@H](C)NC(=O)[C@H](Cc1c[nH]cn1)NC(=O)[C@@H](N)CO)[C@@H](C)O)[C@@H](C)O)C(C)C)C(=O)N[C@@H](C)C(=O)N[C@@H](Cc1c[nH]c2ccccc12)C(=O)N[C@@H](CC(C)C)C(=O)N[C@H](C(=O)N[C@@H](CCCCN)C(=O)NCC(=O)N[C@@H](CCCNC(=N)N)C(=O)O)C(C)C` [S-GLP-1, S HAEGTFTSDVSSYLEGQAAKEFIAWLVKGR], in that order: 7.28, 8.70 and 9.40.
For `CC[C@H](C)[C@H](NC(=O)[C@H](Cc1ccccc1)NC(=O)[C@H](CCC(=O)O)NC(=O)[C@H](CCCCN)NC(=O)[C@H](C)NC(=O)[C@H](C)NC(=O)[C@H](CCC(N)=O)NC(=O)CNC(=O)[C@H](CCC(=O)O)NC(=O)[C@H](CC(C)C)NC(=O)[C@H](Cc1ccc(O)cc1)NC(=O)[C@H](CO)NC(=O)[C@H](CO)NC(=O)[C@@H](NC(=O)[C@H](CC(=O)O)NC(=O)[C@H](CO)NC(=O)[C@@H](NC(=O)[C@H](Cc1ccccc1)NC(=O)[C@@H](NC(=O)CNC(=O)[C@H](CCC(=O)O)NC(=O)[C@H](C)NC(=O)[C@H](Cc1c[nH]cn1)NC(=O)[C@@H](N)[C@@H](C)O)[C@@H](C)O)[C@@H](C)O)C(C)C)C(=O)N[C@@H](C)C(=O)N[C@@H](Cc1c[nH]c2ccccc12)C(=O)N[C@@H](CC(C)C)C(=O)N[C@H](C(=O)N[C@@H](CCCCN)C(=O)NCC(=O)N[C@@H](CCCNC(=N)N)C(=O)O)C(C)C` [T-GLP-1, T HAEGTFTSDVSSYLEGQAAKEFIAWLVKGR] the same measures were 7.28, 8.70 and 9.52.
“cgGLP-9: SEQ ID NO: 6 + 20k PEG dimer (HGEGTFTSDVSSYLEGCAAKEFIAWLVKGRG; not fully specified (residue 17); also: 20k PEG dimer)” showed a pIC50 with human GLP-1 receptor [1] (membranes of CHOK1 cells expressing human GLP-1 receptor, 0.2 nM 125I-GLP-1) below 6.00. The values for the negative-log EC50 (pEC50) with mouse GLP-1 receptor and in the test with human GLP-1 receptor [2] were 8.05 and 9.00, respectively.
“cgGLP-18: SEQ ID NO: 12 + 20k PEG (HXEGTFTSDVSSYLEGQAAKEFIAWLVKGRGCSGG; 20k PEG)”: in test [3] (relative to control), the “ability to lower blood glucose over a 72 hour time span (FIG. 12)” value is reported as “lowered blood glucose relative to control”.
Consider “cgGLP-20: SEQ ID NO: 25 + 20 k mPEG (H[Aib′]EGTFTSDVSSYLE[Aib′]QAAKEFIAWLVKGRGC(20k mPEG)SG; not fully specified)”, for which the “decrease of blood glucose levels over time (FIG. 13)” value in test [3] is recorded as “significant decrease in blood glucose levels over a 48 hour time period”.
Same read-out and setting: the same measure for “cgGLP-23: SEQ ID NO: 17 + 20 k PEG (HGEGTFTSDVSSYLE[Aib′]QAAKEFIAWLVKGRGC(20k PEG)-NH2; not fully specified; printed as HGEGT FTSDV SSYLE ZQAAK EFIAW LVKGR GC-amide; also: Aib defined in source as alpha aminobutyric acid)”: “significant decrease in blood glucose levels over a 48 hour time period”.
